PubChem BioAssay (NCI)
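At the GI50, growth is halved. At the TGI there is no net growth.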

What was measured:
Test in all cases: inhibition of tumour cell growth, NCI panel, 384-well format
[1] = test system: COLO 205 colon
[2] = test system: HCC-2998 colon
[3] = test system: HL-60(TB) leukemia
[4] = test system: IGROV1 ovarian
[5] = test system: MALME-3M melanoma
[6] = test system: MCF7 breast
[7] = test system: NCI-H23 lung
[8] = test system: NCI-H322M lung
[9] = test system: OVCAR-3 ovarian
[10] = test system: OVCAR-8 ovarian
[11] = test system: SK-MEL-2 melanoma
[12] = test system: UACC-257 melanoma
[13] = test system: UO-31 renal

CC(C)[C@](O)(c1ccc2cc(OC(F)F)c(OC(F)F)cc2c1)c1cn[nH]n1
GI50 [1]: 20.3 µM | TGI [1]: 39.9 µM | GI50 [2]: 15.4 µM | TGI [2]: 28.9 µM | GI50 [3]: 6.11 µM | TGI [3]: 16.1 µM | GI50 [4]: 17.6 µM | TGI [4]: 37 µM | GI50 [5]: 16.7 µM | TGI [5]: 30.9 µM | GI50 [6]: 13 µM | TGI [6]: 27.5 µM | GI50 [7]: 14.8 µM | TGI [7]: 29.6 µM | GI50 [8]: 17.3 µM | TGI [8]: 33 µM | GI50 [9]: 13 µM | TGI [9]: 25.8 µM | GI50 [10]: 16.3 µM | TGI [10]: 30 µM | GI50 [11]: 19.4 µM | TGI [11]: 33.5 µM | GI50 [12]: 16.5 µM | TGI [12]: 30.6 µM | GI50 [13]: 16.6 µM | TGI [13]: 30.4 µM
